Data on 5 cell lines can be found in the supplement of paper PMC10307832.

Common to all, as to assay: relative viability (nuclei count vs DMSO), 5 days (fraction); higher = more cells survive
Compound in the experiment “Palbociclib + Vorinostat”: CC(=O)c1c(C)c2cnc(Nc3ccc(N4CCNCC4)cn3)nc2n(C2CCCC2)c1=O [Palbociclib] + O=C(CCCCCCC(=O)Nc1ccccc1)NO [Vorinostat] (partner 1 µM)
Put shortly: (§1)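 The day after seeding in 1536-well plates, lung cancer cell lines were treated by pin tool with a single drug, or with a fixed anchor-drug dose together with five library-drug doses (not always all listed) in √10 steps. After 5 days, a combined fix-and-stain solution (final 0.05% Triton X-100, 1% formaldehyde, 1 ug/ml Hoechst) was added. Nuclei counted on 4× images gave relative viability as treated counts over vehicle counts, reported as the median of duplicate plates.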

Compound in the experiment “Palbociclib + Phenformin”: CC(=O)c1c(C)c2cnc(Nc3ccc(N4CCNCC4)cn3)nc2n(C2CCCC2)c1=O [Palbociclib] + N=C(N)NC(=N)NCCc1ccccc1 [Phenformin] (partner 250 µM)
Put shortly:
as §1

Compound in the experiment “Palbociclib + Luminespib”: CC(=O)c1c(C)c2cnc(Nc3ccc(N4CCNCC4)cn3)nc2n(C2CCCC2)c1=O [Palbociclib] + CCNC(=O)c1noc(-c2cc(C(C)C)c(O)cc2O)c1-c1ccc(CN2CCOCC2)cc1 [Luminespib] (partner 0.01 µM)
In a few lines:
as §1

Compound in the experiment “Palbociclib + Dasatinib”: CC(=O)c1c(C)c2cnc(Nc3ccc(N4CCNCC4)cn3)nc2n(C2CCCC2)c1=O [Palbociclib] + Cc1nc(Nc2ncc(C(=O)Nc3c(C)cccc3Cl)s2)cc(N2CCN(CCO)CC2)n1 [Dasatinib] (partner 0.075 µM)
In a few lines: as §1

Consider NCI-H1793, for which the relative viability with Palbociclib + Vorinostat (first compound 0.01 µM) is 0.824; with Palbociclib + Vorinostat (first compound 0.03162 µM), 0.564; with Palbociclib + Vorinostat (first compound 0.1 µM) it was 0.531; with Palbociclib + Vorinostat (first compound 0.3162 µM), 0.664; with Palbociclib + Vorinostat (first compound 1 µM), 0.287; with Palbociclib + Phenformin (first compound 0.01 µM) it was 0.28. Further, the relative viability was 0.336 with Palbociclib + Phenformin (first compound 0.1 µM); 0.309 with Palbociclib + Phenformin (first compound 0.3162 µM); 0.173 with Palbociclib + Phenformin (first compound 1 µM); 0.17 with Palbociclib + Luminespib (first compound 0.01 µM); 0.243 with Palbociclib + Luminespib (first compound 0.1 µM); 0.193 with Palbociclib + Luminespib (first compound 0.3162 µM). Moreover, the relative viability with Palbociclib + Luminespib (first compound 1 µM) is 0.2; with Palbociclib + Dasatinib (first compound 0.01 µM), 0.409; with Palbociclib + Dasatinib (first compound 0.1 µM) it was 0.359; in the experiment with Palbociclib + Dasatinib (first compound 0.3162 µM) it was 0.342; in the experiment with Palbociclib + Dasatinib (first compound 1 µM), 0.221.

On to NCI-H1915, for which the relative viability with Palbociclib + Vorinostat (first compound 0.01 µM) was 0.487; with Palbociclib + Vorinostat (first compound 0.1 µM), 0.438; with Palbociclib + Vorinostat (first compound 0.3162 µM), 0.525; with Palbociclib + Vorinostat (first compound 1 µM), 0.378; with Palbociclib + Phenformin (first compound 0.01 µM) it was 0.365; with Palbociclib + Phenformin (first compound 0.03162 µM) it was 0.308. Moreover, the relative viability with Palbociclib + Phenformin (first compound 0.1 µM) amounted to 0.37; in the experiment with Palbociclib + Phenformin (first compound 0.3162 µM) it was 0.346; with Palbociclib + Phenformin (first compound 1 µM), 0.323; in the experiment with Palbociclib + Luminespib (first compound 0.01 µM), 0.807; in the experiment with Palbociclib + Luminespib (first compound 0.03162 µM), 0.674; with Palbociclib + Luminespib (first compound 0.1 µM) it was 0.793. Besides, the relative viability with Palbociclib + Luminespib (first compound 0.3162 µM) is 0.71; in the experiment with Palbociclib + Luminespib (first compound 1 µM), 0.629; with Palbociclib + Dasatinib (first compound 0.01 µM) it was 0.293; with Palbociclib + Dasatinib (first compound 0.03162 µM), 0.247; with Palbociclib + Dasatinib (first compound 0.1 µM), 0.28; in the experiment with Palbociclib + Dasatinib (first compound 0.3162 µM) it was 0.247. In addition, the relative viability in the experiment with Palbociclib + Dasatinib (first compound 1 µM) came out at 0.245.

Turning to NCI-H1944, the relative viability worked out at 0.579 in the experiment with Palbociclib + Vorinostat (first compound 0.01 µM); 0.456 with Palbociclib + Vorinostat (first compound 0.03162 µM); 0.399 with Palbociclib + Vorinostat (first compound 0.1 µM); 0.475 with Palbociclib + Vorinostat (first compound 0.3162 µM); 0.343 with Palbociclib + Vorinostat (first compound 1 µM); 0.206 in the experiment with Palbociclib + Phenformin (first compound 0.01 µM). In addition, the relative viability with Palbociclib + Phenformin (first compound 0.03162 µM) is 0.172; in the experiment with Palbociclib + Phenformin (first compound 0.1 µM) it was 0.182; with Palbociclib + Phenformin (first compound 0.3162 µM), 0.174; with Palbociclib + Phenformin (first compound 1 µM), 0.165; with Palbociclib + Luminespib (first compound 0.01 µM), 0.683; with Palbociclib + Luminespib (first compound 0.03162 µM) it was 0.742. Besides, the relative viability in the experiment with Palbociclib + Luminespib (first compound 0.1 µM) stood at 0.626; with Palbociclib + Luminespib (first compound 0.3162 µM) it was 0.666; with Palbociclib + Luminespib (first compound 1 µM), 0.516; in the experiment with Palbociclib + Dasatinib (first compound 0.01 µM) it was 0.211; in the experiment with Palbociclib + Dasatinib (first compound 0.03162 µM), 0.162; with Palbociclib + Dasatinib (first compound 0.1 µM), 0.193. Further, the figures for the relative viability in the experiment with Palbociclib + Dasatinib (first compound 0.3162 µM) and with Palbociclib + Dasatinib (first compound 1 µM) were 0.19 and 0.147, respectively.

For the cell line NCI-H1975, the relative viability stood at 0.712 with Palbociclib + Vorinostat (first compound 0.01 µM); 0.649 in the experiment with Palbociclib + Vorinostat (first compound 0.03162 µM); 0.597 in the experiment with Palbociclib + Vorinostat (first compound 0.1 µM); 0.579 with Palbociclib + Vorinostat (first compound 0.3162 µM); 0.469 with Palbociclib + Vorinostat (first compound 1 µM); 0.388 in the experiment with Palbociclib + Phenformin (first compound 0.01 µM). Also, the relative viability with Palbociclib + Phenformin (first compound 0.03162 µM) came out at 0.384; with Palbociclib + Phenformin (first compound 0.1 µM) it was 0.325; in the experiment with Palbociclib + Phenformin (first compound 0.3162 µM), 0.273; in the experiment with Palbociclib + Phenformin (first compound 1 µM) it was 0.3; in the experiment with Palbociclib + Luminespib (first compound 0.01 µM), 0.161; with Palbociclib + Luminespib (first compound 0.03162 µM) it was 0.189. Further, the relative viability was determined as 0.102 in the experiment with Palbociclib + Luminespib (first compound 0.1 µM); 0.198 in the experiment with Palbociclib + Luminespib (first compound 0.3162 µM); 0.193 with Palbociclib + Luminespib (first compound 1 µM); 0.373 in the experiment with Palbociclib + Dasatinib (first compound 0.01 µM); 0.347 with Palbociclib + Dasatinib (first compound 0.03162 µM); 0.323 with Palbociclib + Dasatinib (first compound 0.1 µM). Besides, the relative viability was found to be 0.322 in the experiment with Palbociclib + Dasatinib (first compound 0.3162 µM) and 0.297 in the experiment with Palbociclib + Dasatinib (first compound 1 µM).

For the cell line NCI-H1993, the relative viability stood at 0.8 in the experiment with Palbociclib + Vorinostat (first compound 0.01 µM); 0.539 in the experiment with Palbociclib + Vorinostat (first compound 0.03162 µM); 0.625 in the experiment with Palbociclib + Vorinostat (first compound 0.1 µM); 0.644 in the experiment with Palbociclib + Vorinostat (first compound 0.3162 µM); 0.65 with Palbociclib + Vorinostat (first compound 1 µM); 0.467 in the experiment with Palbociclib + Phenformin (first compound 0.01 µM). For the same cell line, the relative viability turned out to be 0.474 with Palbociclib + Phenformin (first compound 0.03162 µM); 0.464 in the experiment with Palbociclib + Phenformin (first compound 0.1 µM); 0.445 with Palbociclib + Phenformin (first compound 0.3162 µM); 0.556 in the experiment with Palbociclib + Phenformin (first compound 1 µM); 0.8 with Palbociclib + Luminespib (first compound 0.01 µM); 0.781 with Palbociclib + Luminespib (first compound 0.03162 µM). For the same cell line, the relative viability with Palbociclib + Luminespib (first compound 0.1 µM) was determined as 0.762; with Palbociclib + Luminespib (first compound 0.3162 µM), 0.671; in the experiment with Palbociclib + Luminespib (first compound 1 µM) it was 0.888; in the experiment with Palbociclib + Dasatinib (first compound 0.01 µM) it was 0.68; in the experiment with Palbociclib + Dasatinib (first compound 0.03162 µM), 0.542; in the experiment with Palbociclib + Dasatinib (first compound 0.1 µM), 0.509. In addition, the relative viability in the experiment with Palbociclib + Dasatinib (first compound 0.3162 µM) came to 0.415; with Palbociclib + Dasatinib (first compound 1 µM), 0.439.
